Consider 2 molecules from US20060200330A1, “Methods and systems for modeling and simulating biochemical pathways” (KOREA INSTITUTE OF SCIENCE AND TECHNOLOGY, priority 2005, published 2006).

One assay has as its system MEK. As to the kind of experiment: Western blot of MEK activation (anti-phosphorylated MEK) in PC12 cells. The class given is cell-based. As to conditions: PC12 cells, U0126 0.01-10 μM, 100 ng/ml EGF or NGF for 5 min. As to the method:
(§1) In order to confirm the simulation, PC12 cells treated with EGF (100 ng/ml) were used to measure the time data tracking the activation levels of MEK and ERK, respectively. […] Western blot analysis was performed as follows. PC12 cells were treated with 100 ng/ml EGF for 0 to 120 min. Dissolved protein samples were reacted by using anti-phosphorylated MEK antibodies and anti-diphosphorylated ERK antibodies. Then, the resultant was reacted with anti-HRP (horse radish peroxidase)-conjugated secondary antibodies and confirmed the presence of a band via ECL chemoluminscence.
(§2) PC12 cells treated with EGF or nerve growth factor (NGF) were examined to evaluate the efficacies of PD09859 (10 μM) and U0126 (0.01-10 μM) in respect of MEK and ERK activation. Western blot analysis was performed as follows. PC12 cells treated with PD09859 and U0126 were treated with 100 ng/ml of EGF or NGF for 5 min. Then, the resulting protein sample was separated by performing SDS/PAGE, and then blotted by using anti-phosphorylated MEK and anti-diphosphoryated ERK antibodies. Again, the resultant was blotted by using anti-HRP (horseradish peroxidase) conjugated secondary antibodies and identified in bands by ECL chemo-luminescence.

For the next assay, the system named is ERK. As to the kind of experiment: Western blot of ERK activation (anti-diphosphorylated ERK) in PC12 cells. As to conditions: PC12 cells, PD09859 10 μM or U0126 0.01-10 μM, 100 ng/ml EGF or NGF for 5 min. The class given is cell-based. The protocol: as §1, §2
Another assay concerns MAPK pathway. As to conditions: cited from earlier work; for effect on ERK activation, as reported: literature report.

Regarding `N#CC(=C(/N)Sc1ccccc1N)/C(C#N)=C(\N)Sc1ccccc1N` [U0126], the MEK activation result in the assay on MEK is on record as “not suppressed”. The “ERK activation / intracellular ERK phosphorylation” value with ERK is listed as “suppressed by the MEK activity dose-dependently”. Besides, the “inhibition of MAPK pathway compared with the other inhibitor” value in the assay on MAPK pathway (U0126 versus PD09859, literature report) was “more effective and specific”. Besides, the “effect on ERK activation, as reported” value in the assay with MAPK pathway is “suppress ERK activation”.

Regarding `COc1cccc(-c2cc(=O)c3ccccc3o2)c1N` [PD98059], the “ERK activation / intracellular ERK phosphorylation” value in the assay with ERK is reported as “not suppressed”. Besides, the “effect on ERK activation, as reported” value in the assay with MAPK pathway was “suppress ERK activation”.
